According to patent US10294234B2, “HIV inhibitor compounds” (priority 2017, dated 2019):
Where two headings read alike, the source gives them in different places.

Legend:
[1] = Outline: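 Compounds at 1 uM were incubated in duplicate with dog, rat or human liver microsomes (0.5 mg/mL protein) and an NADPH-regenerating system, sampled at 2, 12, 25, 45 and 65 minutes. Remaining parent was measured by LC/MS/MS, and Clint was calculated from the in vitro t1/2.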
[2] = 3H Human Predicted Clearance Assay (tritiated analogs); type: in vitro ADME; parameters: unit not given here
Procedure: 3H Human Predicted Clearance Assay:
For certain compounds, tritiated analogs (H^3) were prepared to further determined their human predicted clearance with increased resolution. Those studies were performed as described above using the tritiated analogs. Data from those compounds is found in Table 2 below and reported in FIG. 1 (note ATV and DRV were not tritiated).

[3] = system: HIV-1 (IIIB) in MT-4 cells; assay: MT-4 HIV assay; type: cell-based; conditions: HIV-1 (IIIB), MT-4 cells, 5 days, Cell Titer Glo, read-out: EC50
Outline: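 MT-4 cells infected with HIV-1 IIIB (1:250 stock dilution) were incubated with 1:3 serially diluted compounds in RPMI with 10% FBS for 5 days at 37 °C. Cell Titer Glo luminescence was the readout. Plates included mock-infected wells, no-drug wells and 5 uM AZT controls.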

[4] = in vivo; conditions: rat, in vivo; for Vd / RAT PO F: male, SD; for Vd / RAT IV CL / RAT IV T1/2: iv; for RAT PO F: 2.5 mg/kg
Procedure: Each dosing group consisted of 3 male naïve SD Rats. At dosing, the animals weighed between 0.27 to 0.32 kg. The animals were fasted overnight prior to dose administration. The test article was administered by intravenous infusion over 30 min. The rate of infusion was adjusted according to the body weight of each animal to deliver a dose of 0.5 or 1.0 mg/kg. For the oral dosing group, the test article was administered to animals by oral gavage administration. Serial venous blood samples (approximately 0.30 mL each) were taken at predose and 0.25, 0.48, 0.58, 0.75, 1.5, 3, 6, 8, 12 and 24 hours post dose for the IV dosing group animals. Blood samples were taken at predose, 0.25, 0.50, 1, 2, 4, 6, 8, 12 and 24 hours post dose for the oral group animals. The blood samples were collected into Vacutainer™ tubes containing EDTA-K2 as the anti-coagulant and were immediately placed on wet ice pending centrifugation for plasma. An LC/MS/MS method was used to measure the concentration of test compound in plasma. Non-compartmental pharmacokinetic analysis was performed on the plasma concentration-time data.

[5] = Human immunodeficiency virus 1, MT4, 120 h
[6] = human liver microsomes 0.5 mg/mL, 1 uM compound, NADPH
[7] = rat liver microsomes 0.5 mg/mL, 1 uM compound, NADPH
[8] = tritiated analogs, human liver microsomes

In the case of `COC(=O)N[C@H](C(=O)N[C@@H](Cc1ccc(C#Cc2ccc(N3CC4CCC(C3)N4C3COC3)nc2)cc1)[C@@H](O)CN(Cc1c(F)cc(-c2ncccn2)cc1F)NC(=O)[C@@H](NC(=O)OC)C(C)(C)C(F)(F)F)C(C)(C)C(F)(F)F` [Example 101, Methyl ((5S,8S,9S,14S)-11-(2,6-difluoro-4-(pyrimidin-2-yl)benzyl)-16,16,16-trifluoro-9-hydroxy-15,15-dimethyl-8-(4-((6-(8-(oxetan-3-yl)-3,8-diazabicyclo [3.2.1]octan-3-yl)pyridin-3-yl)ethynyl)benzyl)-3,6,13-trioxo-5-(1,1,1-trifluoro-2-methylpropan-2-yl)-2-oxa-4,7,11,12-tetraazahexadecan-14-yl)carbamate], the “Human Pred Cl.” value ([1]; human, microsomes) is reported as less than 0.11 L/H/kg, the “Rat. Pred. Cl.” value ([1]; rat, microsomes) is reported as less than 0.18 L/H/kg and the “3H Human Predicted Cl.” value ([2]; human, 1 uM) is reported as 0.08. For the same compound, the EC50 [3, 5] was 4.22 nM, the Vd [4] was 6.07 L/kg and the “RAT PO F” value [4] was 38.4%. The “RAT IV CL” value [4] was 8 mL/min/kg and the “RAT IV T1/2” value [4] was 10 h.

With `COC(=O)N[C@H](C(=O)N[C@@H](Cc1ccc(C#Cc2ccc(N3CC4CCC(C3)N4C3COC3)nc2)cc1)[C@@H](O)CN(Cc1c(F)cc(-c2cc(F)ccn2)cc1F)NC(=O)[C@@H](NC(=O)OC)C(C)(C)C(F)(F)F)C(C)(C)C(F)(F)F` [Example 239, methyl ((5S,8S,9S,14S)-11-(2,6-difluoro-4-(4-fluoropyridin-2-yl)benzyl)-16,16,16-trifluoro-9-hydroxy-15,15-dimethyl-8-(4-((6-(8-(oxetan-3-yl)-3,8-diazabicyclo[3.2.1]octan-3-yl)pyridin-3-yl)ethynyl)benzyl)-3,6,13-trioxo-5-(1,1,1-trifluoro-2-methylpropan-2-yl)-2-oxa-4,7,11,12-tetraazahexadecan-14-yl)carbamate] the “Human Pred Cl.” value ([1]; human, microsomes) was less than 0.11 L/H/kg, the “Rat. Pred. Cl.” value ([1]; rat, microsomes) was less than 0.18 L/H/kg and the “3H Human Predicted Cl.” value ([2]; human, 1 uM) was 0.13. For the same compound, the EC50 [3, 5] was 4.45 nM, the Vd [4] was 5.49 L/kg and the “RAT PO F” value [4] was 26.3%. For the same compound, the “RAT IV CL” value [4] was 6.7 mL/min/kg and the “RAT IV T1/2” value [4] was 12.9 h.

For `COC(=O)N[C@H](C(=O)N[C@@H](Cc1ccc(C#Cc2cnc(N3CC4CCC(C3)N4C3COC3)nc2)cc1)[C@@H](O)CN(Cc1c(F)cc(-c2ccn(CC(F)F)n2)cc1F)NC(=O)[C@@H](NC(=O)OC)C(C)(C)C(F)(F)F)C(C)(C)C(F)(F)F` [Example 36, Methyl ((5S,8S,9S,14S)-11-(4-(1-(2,2-difluoroethyl)-1H-pyrazol-3-yl)-2,6-difluorobenzyl)-16,16,16-trifluoro-9-hydroxy-15,15-dimethyl-8-(4-((2-(8-(oxetan-3-yl)-3,8-diazabicyclo[3.2.1]octan-3-yl)pyrimidin-5-yl)ethynyl)benzyl)-3,6,13-trioxo-5-(1,1,1-trifluoro-2-methylpropan-2-yl)-2-oxa-4,7,11,12-tetraazahexadecan-14-yl)carbamate], the “Human Pred Cl.” value ([1]; human, microsomes) was less than 0.11 L/H/kg, the “Rat. Pred. Cl.” value ([1]; rat, microsomes) was 0.27 L/H/kg and the “3H Human Predicted Cl.” value ([2]; human, 1 uM) was 0.1. For the same compound, the EC50 [3, 5] was 3.68 nM, the Vd [4] was 5.99 L/kg and the “RAT PO F” value [4] was 16.4%. The “RAT IV CL” value [4] was 5.33 mL/min/kg and the “RAT IV T1/2” value [4] was 15.7 h.

In the case of `COC(=O)N[C@H](C(=O)N[C@@H](Cc1ccc(C#Cc2cnc(N3CC4CCC(C3)N4C3COC3)nc2)cc1)[C@@H](O)CN(Cc1c(F)cc(-c2ncccn2)cc1F)NC(=O)[C@@H](NC(=O)OC)C(C)(C)C(F)(F)F)C(C)(C)C(F)(F)F` [Example 89, Methyl ((5S,8S,9S,14S)-11-(2,6-difluoro-4-(pyrimidin-2-yl)benzyl)-16,16,16-trifluoro-9-hydroxy-15,15-dimethyl-8-(4-((2-(8-(oxetan-3-yl)-3,8-diazabicyclo[3.2.1]octan-3-yl)pyrimidin-5-yl)ethynyl)benzyl)-3,6,13-trioxo-5-(1,1,1-trifluoro-2-methylpropan-2-yl)-2-oxa-4,7,11,12-tetraazahexadecan-14-yl)carbamate], the “Dog. Pred. Cl.” value ([1]; dog, microsomes) is reported as 1.67 L/H/kg, the “Human Pred Cl.” value ([1]; human, microsomes) is reported as less than 0.11 L/H/kg and the “Rat. Pred. Cl.” value ([1]; rat, microsomes) is reported as less than 0.18 L/H/kg. The “3H Human Predicted Cl.” value ([2]; human, 1 uM) was 0.08, the EC50 [3, 5] was 3.32 nM and the Vd [4] was 3.53 L/kg. For the same compound, the “RAT PO F” value [4] was 44.2%, the “RAT IV CL” value [4] was 5 mL/min/kg and the “RAT IV T1/2” value [4] was 10.2 h.

In the case of `COC(=O)N[C@H](C(=O)N[C@@H](Cc1ccc(-c2cnc(N3CC4CCC(C3)N4C3COC3)nc2)cc1)[C@@H](O)CN(Cc1c(F)cc(-c2ccn(C(F)F)n2)cc1F)NC(=O)[C@@H](NC(=O)OC)C(C)(C)C(F)(F)F)C(C)(C)C(F)(F)F` [Example 199, Methyl ((5S,8S,9S,14S)-11-(4-(1-(difluoromethyl)-1H-pyrazol-3-yl)-2,6-difluorobenzyl)-16,16,16-trifluoro-9-hydroxy-15,15-dimethyl-8-(4-(2-(8-(oxetan-3-yl)-3,8-diazabicyclo[3.2.1]octan-3-yl)pyrimidin-5-yl)benzyl)-3,6,13-trioxo-5-(1,1,1-trifluoro-2-methylpropan-2-yl)-2-oxa-4,7,11,12-tetraazahexadecan-14-yl)carbamate], the “Dog. Pred. Cl.” value ([1]; dog, microsomes) is reported as 0.91 L/H/kg, the “Human Pred Cl.” value ([1]; human, microsomes) is reported as less than 0.11 L/H/kg and the “Rat. Pred. Cl.” value ([1]; rat, microsomes) is reported as 0.48 L/H/kg. The “3H Human Predicted Cl.” value ([2]; human, 1 uM) was 0.15, the EC50 [3, 5] was 2.72 nM and the Vd [4] was 1.07 L/kg. For the same compound, the “RAT PO F” value [4] was 14.7%, the “RAT IV CL” value [4] was 7.67 mL/min/kg and the “RAT IV T1/2” value [4] was 2.09 h.

In the case of `COC(=O)N[C@H](C(=O)N[C@@H](Cc1ccc(-c2ccc(N3CC4CCC(C3)N4C3COC3)nc2)cc1)[C@@H](O)CN(Cc1c(F)cc(-c2ccn(C(F)F)n2)cc1F)NC(=O)[C@@H](NC(=O)OC)C(C)(C)C(F)(F)F)C(C)(C)C(F)(F)F` [Example 208, Methyl ((5S,8S,9S,14S)-11-(4-(1-(difluoromethyl)-1H-pyrazol-3-yl)-2,6-difluorobenzyl)-16,16,16-trifluoro-9-hydroxy-15,15-dimethyl-8-(4-(6-(8-(oxetan-3-yl)-3,8-diazabicyclo[3.2.1]octan-3-yl)pyridin-3-yl)benzyl)-3,6,13-trioxo-5-(1,1,1-trifluoro-2-methylpropan-2-yl)-2-oxa-4,7,11,12-tetraazahexadecan-14-yl)carbamate], the “Human Pred Cl.” value ([1]; human, microsomes) is reported as 0.16 L/H/kg, the “Rat. Pred. Cl.” value ([1]; rat, microsomes) is reported as 0.74 L/H/kg and the “3H Human Predicted Cl.” value ([2]; human, 1 uM) is reported as 0.11. It also gave an EC50 [3, 5] of 2.51 nM.

In the case of “Methyl ((5S,8S,9S,14S)-11-(4-(1-(difluoromethyl)-1H-pyrazol-3-yl)-2,6-difluorobenzyl)-16,16,16-trifluoro-9-hydroxy-15,15-dimethyl-8-(4-((6-(4-(oxetan-3-yl)piperazin-1-yl)pyridin-3-yl)ethynyl)benzyl)-3,6,3-trioxo-5-(1,1,1-trifluoro-2-methylpropan-2-yl)-2-oxa-4,7,11,12-tetraazahexadecan-14-yl)carbamate [Example 112]”, the “Human Pred Cl.” value [1, 6] is reported as less than 0.11 L/H/kg, the “Rat. Pred. Cl.” value [1, 7] is reported as 0.32 L/H/kg and the “3H Human Predicted Cl.” value [2, 8] is reported as 0.11. For the same compound, the EC50 [3] was 4.45 nM.

With `COC(=O)N[C@H](C(=O)N[C@@H](Cc1ccc(C#Cc2cnc(N3CCN(C4COC4)CC3)nc2)cc1)[C@@H](O)CN(Cc1c(F)cc(-c2ncccn2)cc1F)NC(=O)[C@@H](NC(=O)OC)C(C)(C)C(F)(F)F)C(C)(C)C(F)(F)F` [Example 88, Methyl ((5S,8S,9S,14S)-11-(2,6-difluoro-4-(pyrimidin-2-yl)benzyl)-16,16,16-trifluoro-9-hydroxy-15,15-dimethyl-8-(4-((2-(4-(oxetan-3-yl)piperazin-1-yl)pyrimidin-5-yl)ethynyl)benzyl)-3,6,13-trioxo-5-(1,1,1-trifluoro-2-methylpropan-2-yl)-2-oxa-4,7,11,12-tetraazahexadecan-14-yl)carbamate] the “Dog. Pred. Cl.” value ([1]; dog liver microsomes 0.5 mg/mL, 1 uM compound, NADPH) was 1.63 L/H/kg, the “Human Pred Cl.” value [1, 6] was less than 0.11 L/H/kg and the “Rat. Pred. Cl.” value [1, 7] was less than 0.18 L/H/kg. The “3H Human Predicted Cl.” value [2, 8] was 0.08 and the EC50 [3, 5] was 4.57 nM.
